# Test results reported in patent US20170128467A1, “ANTIMICROBIAL PHARMACEUTICAL COMPOSITIONS WITH MULTIPLE DRUG RESISTANCE INHIBITING PROPERTIES” (priority 2014, published 2017).
# Legend:
# [1] = test system: Bacillus subtilis cells; assay: Growth inhibition assay in liquid medium, B. subtilis; format: cell-based; settings: for antimicrobial activity (growth inhibition): gram-positive
# Method: (§1) Growing in the liquid medium method was selected as the method to test antibacterial activity of SkQ1. Overnight bacterial cells cultures were diluted in fresh LB media. Bacterial cell culture (5×10^6 cells/ml) were inoculated 200 μl into 96-well plates (Eppendorf, Eppendorf AG, Hamburg, Germany) and SkQ1 or CnTPP were added to reach various final concentrations in the range from 0.5 to 200 μM. Cells were left to grow for 21 hours at 37° C. Optical density at 600 nm was measured using an AnthosZenyth 3100 multimode reader (Anthos Labtec, Austria) during incubation.
# (§2) We selected Ecsherishia coli cells as a Gram-negative model organism and Bacillus subtilis cells as a Gram-positive model organism. SkQ1 was selected as a model compound of formula 1 with antioxidant moiety. To select a proper concentration of a compound of formula 1 we performed growth inhibition assays for several SkQ1 concentrations (see FIGS. 8 A and B). It can be concluded from the results of this experiment that 1 μM SkQ1 is the minimal inhibitory concentration (MIC) for B. subtilis cells.
# [2] = test system: ΔTolC (JW5503); assay: Growth inhibition assay, TolC deletion mutant; format: cell-based, Escherichia coli K-12; settings: for IMPOSSIBILITY OF GROWTH: ΔTolC
# Method: as §1
# (§3) In this experiment we have tested whether To1C-dependent transporter is responsible for resistance of E. coli's cells to SkQ1. In the experiment we used single-gene knockout mutants from Keio collection [Baba T., et al., (2006)]. Construction of Escherichia coli K-12 in-frame, single-gene knockout mutants: the Keio collection. Mol. Syst. Biol. 2, 2006.0008.]. […] We used other knockout mutants of genes encoding proteins of transporters that require To1C for their function. […] In contrast, deletion of genes acrA or acrB dramatically changed the sensitivity of E. coli's cells to SkQ1.
# Table 1. Results of growth inhibition assay for deletion mutants of genes encoding To1C-required efflux pumps proteins. Deletion strains JW5503 (devoid of the to1C gene), JW0452 (devoid of the acrA gene), JW0451 (devoid of the acrB gene), JW2454 (devoid of the acrD gene), JW3233 (devoid of the acrE gene), JW3234 (devoid of the acrF gene), JW5338 (devoid of the mdtA gene), JW2060 (devoid of the mdtB gene), JW2061 (devoid of the mdtC gene), JW3481 (devoid of the mdtE gene), and JW3482 (devoid of the mdtF gene) have been described in Baba T., et al., (2006). Construction of Escherichia coli K-12 in-frame, single-gene knockout mutants: the Keio collection. Mol. Syst. Biol. 2, 2006.0008.
# [3] = test system: E. coli; assay: Growth inhibition assay in liquid medium, E. coli; format: cell-based, Escherichia coli
# Method: as §1, §2
# [4] = test system: S. cerevisiae W303-1A and PGAL-PDR5, PGAL-SNQ2, PGAL-YOR1 strains; assay: Survival assay (CFU) of yeast treated with C12TPP or SkQ1; format: cell-based, Saccharomyces cerevisiae; settings: galactose-grown cells, 3 hours treatment
# Excerpt: FIG. 1A show the chemical structure of dodecyltriphenylphosphonium C12TPP and its plastoquinone derivative (SkQ1) used in this study.
# In this example, we used W303-1A S. cerevisiae strains and its derivatives: AD1-8 with deletions of eight MDR genes [W303-1A, yor1::hisG, snq2::hisG, pdr5:shisG, pdr10::hisG, pdr11::hisG, ycf1::hisG, pdr3::hisG, pdr15::hisG][4]□, PGAL-PDR5 [W303-1A HIS3::PGAL-PDR5], PGAL-SNQ2 [W303-1A HIS3::PGAL-SNQ2], and […] [W303-1AHIS3::PGAL-YOR1](this study). Cells were grown in YPD medium (2% glucose, 1% bactopeptone, 1% yeast extract), or in YPGal (2% galactose, 1% bactopepton, 1% yeast extract). For genetic screening and maintenance of strains with conditionally expressed genes synthetic drop-out media YNB-Leu or YNB-His were used according to Sherman 2000 [5]. The growth rates were measured by increase of light scattering (λ=550 nm) in liquid yeast culture.
# Exponentially grown cells were taken and treated with indicated amounts of C12TPP or SKQ1 for 3 hours. Then cell suspensions were plated on solid YPD medium and incubated for 48 hours, the number of formed colonies were counted. 100% refers to the number of colony forming units (CFU) in yeast suspension at the beginning of experiment.
# [5] = test system: ΔAcrB (JW0451); assay: Growth inhibition assay, AcrB deletion mutant; format: cell-based, Escherichia coli K-12
# Method: as §1, §3
# (§4) Table 1. Results of growth inhibition assay for deletion mutants of genes encoding To1C-required efflux pumps proteins. […]
# [6] = target: T1, AcrAB-To1C transporter (Escherichia coli, UniProt P31224); assay: Ethidium bromide accumulation experiment; format: cell-based; settings: SkQ1 50 μM; ethidium bromide 20 μg/ml
# T1 construct: endogenous in cells
# T1 sequence (P0AE06 25-397): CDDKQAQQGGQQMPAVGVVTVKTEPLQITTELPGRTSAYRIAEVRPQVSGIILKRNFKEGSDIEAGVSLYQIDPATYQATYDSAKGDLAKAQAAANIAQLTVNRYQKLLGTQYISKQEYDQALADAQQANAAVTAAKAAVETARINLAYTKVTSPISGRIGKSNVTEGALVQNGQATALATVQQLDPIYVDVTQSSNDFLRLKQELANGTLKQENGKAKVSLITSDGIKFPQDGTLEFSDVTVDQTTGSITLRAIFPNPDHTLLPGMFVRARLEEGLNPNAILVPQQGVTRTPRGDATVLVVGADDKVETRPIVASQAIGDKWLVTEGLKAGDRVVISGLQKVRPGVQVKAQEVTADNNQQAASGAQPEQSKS
# T1 sequence (P02930 23-493, further chain): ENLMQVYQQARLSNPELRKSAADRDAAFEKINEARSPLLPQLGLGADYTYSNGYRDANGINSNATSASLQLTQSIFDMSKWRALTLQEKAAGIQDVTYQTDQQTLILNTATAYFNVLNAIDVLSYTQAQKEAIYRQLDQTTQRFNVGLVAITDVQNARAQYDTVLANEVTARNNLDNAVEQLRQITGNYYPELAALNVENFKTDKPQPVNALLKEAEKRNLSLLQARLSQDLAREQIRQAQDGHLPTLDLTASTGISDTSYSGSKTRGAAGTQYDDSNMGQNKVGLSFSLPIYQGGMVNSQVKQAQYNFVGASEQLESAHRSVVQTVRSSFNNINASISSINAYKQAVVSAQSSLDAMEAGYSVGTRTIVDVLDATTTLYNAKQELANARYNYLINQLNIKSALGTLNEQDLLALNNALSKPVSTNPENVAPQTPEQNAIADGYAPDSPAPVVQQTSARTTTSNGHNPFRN
# T1 sequence (P31224 whole entry): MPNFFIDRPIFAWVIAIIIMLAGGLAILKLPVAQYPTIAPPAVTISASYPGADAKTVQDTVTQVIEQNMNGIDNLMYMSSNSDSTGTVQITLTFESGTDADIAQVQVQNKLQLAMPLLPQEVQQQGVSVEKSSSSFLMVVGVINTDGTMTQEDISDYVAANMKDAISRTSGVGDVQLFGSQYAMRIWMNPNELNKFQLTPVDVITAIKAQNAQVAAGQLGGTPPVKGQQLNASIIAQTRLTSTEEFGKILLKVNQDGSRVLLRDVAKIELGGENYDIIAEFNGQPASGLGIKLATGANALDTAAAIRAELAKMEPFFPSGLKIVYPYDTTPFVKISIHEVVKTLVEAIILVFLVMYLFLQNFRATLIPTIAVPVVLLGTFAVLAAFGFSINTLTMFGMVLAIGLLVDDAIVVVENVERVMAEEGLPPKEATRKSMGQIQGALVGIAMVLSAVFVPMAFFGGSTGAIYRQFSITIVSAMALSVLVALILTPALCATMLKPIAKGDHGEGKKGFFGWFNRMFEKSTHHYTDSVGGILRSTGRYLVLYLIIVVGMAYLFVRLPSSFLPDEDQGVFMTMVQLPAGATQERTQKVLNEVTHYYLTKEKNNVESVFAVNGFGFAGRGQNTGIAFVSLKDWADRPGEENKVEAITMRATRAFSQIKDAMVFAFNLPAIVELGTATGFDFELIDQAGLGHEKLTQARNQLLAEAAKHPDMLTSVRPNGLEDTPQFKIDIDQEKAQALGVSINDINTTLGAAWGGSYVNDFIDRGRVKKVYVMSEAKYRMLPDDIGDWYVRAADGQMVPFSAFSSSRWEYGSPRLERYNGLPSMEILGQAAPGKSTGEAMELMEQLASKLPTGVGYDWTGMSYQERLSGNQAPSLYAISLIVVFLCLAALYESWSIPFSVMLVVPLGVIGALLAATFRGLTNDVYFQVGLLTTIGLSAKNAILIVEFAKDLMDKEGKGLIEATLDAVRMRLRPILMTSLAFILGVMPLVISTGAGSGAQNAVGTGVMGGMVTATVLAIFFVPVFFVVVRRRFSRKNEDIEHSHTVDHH
# Method: For emulation of cell membrane leakage, bacterial cells were resuspended in deionized water. Ethidium bromide was added (20 μg/ml) and the change of fluorescence intensity was recorded on Fluorat-02-Panorama. For detecting of the accumulation of ethidium bromide, SkQ1 was added to a concentration of 50 μM.
# To confirm whether AcrAB-To1C is the appropriate transporter, we used a test based on the measurement of ethidium bromide leakage through intact bacterial membranes. […] Bacterial cells were prepared and resuspended in PBS. For emulation of cell membrane leakage bacterial cells were resuspended in deionized water (Milli-Q water purification system, EMD Millipore, Billerica, Mass.). Ethidium bromide was added (20 μg/ml) and the change of fluorescence intensity was recorded on Fluorat-02-Panorama (Lumex Instruments, Russia) spectrofluorometer. For increasing the accumulation of ethidium bromide, SkQ1 was added to reach a concentration of 50 μM. […] We observed ethidium bromide accumulation when ethidium bromide concentration was 40-times less than MIC for E. coli cells that only can be the result of collateral action of SkQ1 and ethidium bromide as substrates for AcrAB-To1C transporter.
# [7] = target: T2, MDR pumps (Pdr5p) of yeast cells (Saccharomyces cerevisiae, UniProt P33302); format: cell-based; settings: 2 μM compound
# T2 construct: We measured the efflux of R6G from intact yeast cells using fluorometric method; endogenous in cells; host or cells: S. cerevisiae W303-1A (WT); AD1-8 as MDR-negative control
# T2 sequence (P33302 whole entry): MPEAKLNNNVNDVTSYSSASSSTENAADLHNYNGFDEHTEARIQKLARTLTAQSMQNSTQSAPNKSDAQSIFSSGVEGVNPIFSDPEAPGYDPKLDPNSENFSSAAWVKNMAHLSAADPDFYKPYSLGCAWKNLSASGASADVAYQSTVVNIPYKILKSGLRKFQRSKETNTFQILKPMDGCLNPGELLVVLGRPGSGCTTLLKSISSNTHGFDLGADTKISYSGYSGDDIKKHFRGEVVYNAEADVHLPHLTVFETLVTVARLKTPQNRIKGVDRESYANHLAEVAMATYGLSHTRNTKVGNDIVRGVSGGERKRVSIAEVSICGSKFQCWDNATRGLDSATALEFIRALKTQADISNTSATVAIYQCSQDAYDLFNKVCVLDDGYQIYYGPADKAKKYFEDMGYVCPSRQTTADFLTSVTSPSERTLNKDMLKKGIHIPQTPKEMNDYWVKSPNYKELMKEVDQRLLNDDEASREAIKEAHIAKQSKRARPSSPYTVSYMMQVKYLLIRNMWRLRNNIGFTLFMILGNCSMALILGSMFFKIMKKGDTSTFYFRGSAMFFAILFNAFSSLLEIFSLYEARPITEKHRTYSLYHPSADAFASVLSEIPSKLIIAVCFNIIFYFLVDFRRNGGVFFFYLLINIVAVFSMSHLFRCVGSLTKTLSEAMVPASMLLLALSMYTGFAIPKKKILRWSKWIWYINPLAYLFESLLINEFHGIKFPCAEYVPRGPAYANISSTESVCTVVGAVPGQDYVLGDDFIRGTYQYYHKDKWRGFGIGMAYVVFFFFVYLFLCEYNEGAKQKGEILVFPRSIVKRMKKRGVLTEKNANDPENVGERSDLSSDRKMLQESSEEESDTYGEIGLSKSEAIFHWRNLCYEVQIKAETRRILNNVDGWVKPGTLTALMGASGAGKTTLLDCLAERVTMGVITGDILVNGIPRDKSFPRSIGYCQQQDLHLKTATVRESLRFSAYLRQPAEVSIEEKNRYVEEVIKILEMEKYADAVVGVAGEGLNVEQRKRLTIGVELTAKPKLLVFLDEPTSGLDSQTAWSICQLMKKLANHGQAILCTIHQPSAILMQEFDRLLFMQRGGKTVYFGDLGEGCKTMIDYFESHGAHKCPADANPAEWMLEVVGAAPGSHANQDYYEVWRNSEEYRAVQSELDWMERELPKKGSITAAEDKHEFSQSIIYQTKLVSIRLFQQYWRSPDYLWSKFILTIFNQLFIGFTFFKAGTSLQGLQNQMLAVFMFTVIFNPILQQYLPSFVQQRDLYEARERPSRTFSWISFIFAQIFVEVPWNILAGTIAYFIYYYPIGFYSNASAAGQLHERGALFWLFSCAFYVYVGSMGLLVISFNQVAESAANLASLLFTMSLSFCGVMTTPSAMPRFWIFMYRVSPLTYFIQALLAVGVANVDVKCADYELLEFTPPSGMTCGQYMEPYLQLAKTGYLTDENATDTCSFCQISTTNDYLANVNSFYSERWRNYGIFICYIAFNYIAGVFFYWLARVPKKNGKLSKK
# Method: The ordinate corresponds to the ratio of slopes in a and b.
# To measure the relative rate of rhodamine 6G efflux we used fluorometric assay implemented by Kolaczkowsky et al., with few modifications. Cells were grown overnight in 40 ml in liquid YPD to density of 0.5-1*10^7 cells/ml, washed twice with cold sterile water and resuspended in 10 ml phosphate buffer saline supplemented with 5 mM 2-deoxyglucose and 2.5 mM 2,4-dinitrophenol. Cell suspension was incubated for 45 minutes on a rotatory shaker, then the inhibitors were removed by two cycles of centrifugation/resuspension in cold water. The energy deprived cells were resuspended in 10 ml of PBS and then stained with R6G (10 μM) for 30 minutes. Then cell suspension was pelleted, resuspended in equal volume of PBS and stored on ice for 1-5 hours. The measurements of efflux were performed with FluoroMax-3 fluorometer system with exication wavelength set to 480 nm, and emission wavelength set to 560 nm. The R6G efflux was initiated by addition of 0.1% glucose, cell density in fluorometric cuvette was 10^6 cells/ml.
# [8] = test system: ΔAcrA (JW0452); assay: Growth inhibition assay, AcrA deletion mutant; format: cell-based, Escherichia coli K-12
# Method: as §1, §3, §4
smiles,measurement,setting,value
CC1=C(C)C(=O)C(CCCCC[P+](c2ccccc2)(c2ccccc2)c2ccccc2)=CC1=O [SkQ5],antimicrobial activity (growth inhibition),[1],have antimicrobial activity
CC1=C(C)C(=O)C(CCCCCCCCCC[P+](c2ccccc2)(c2ccccc2)c2ccccc2)=C(C)C1=O [SkQ3],antimicrobial activity (growth inhibition),[1],have antimicrobial activity
"CC1=C(C)C(=O)C(CCCCCCCCCC[P+](c2ccccc2)(c2ccccc2)c2ccccc2)=CC1=O [SkQ1, plastoquinonildecyltriphenylphosphonium]",MBC,"[2]; Escherichia coli, read-out: minimal bactericidal concentration",~2 µM
same,IMPOSSIBILITY OF GROWTH,[2]; 5 μM,YES
same,IMPOSSIBILITY OF GROWTH,[2]; 30 μM,YES
same,growth inhibition at 1 μM,[3]; 1 μM SkQ1,did not inhibit significantly growth
same,MIC,"[3]; Escherichia coli, LB media, 37° C., read-out: minimal inhibitory concentration (MIC)",50 µM
same,antimicrobial activity (growth inhibition),[3]; gram-negative,mild antimicrobial activity
same,resistance of cells (survival) under overexpression of MDR pump genes,[4],did not observe any effect of MDR overexpression
same,IMPOSSIBILITY OF GROWTH,[5]; 5 μM,YES
same,IMPOSSIBILITY OF GROWTH,[5]; 30 μM,YES
same,MIC,"[1]; Bacillus subtilis, LB media, 37° C., read-out: minimal inhibitory concentration (MIC)",1 µM
same,antimicrobial activity (growth inhibition),[1],strong antimicrobial activity
same,ethidium bromide leakage through bacterial membranes (accumulation),[6],comparable to ethidium bromide leakage during osmotic shock
same,substrate of AcrAB-To1C transporter,[6],is a substrate for AcrAB-To1C transporter
same,inhibition of glucose-induced R6G efflux from yeast cells,[7],much more efficient
same,inhibition of glucose-induced R6G efflux from yeast cells pretreated with NaN3,[7]; cells pretreated with 10 mM NaN3,inhibits glucose-induced R6G efflux
same,IMPOSSIBILITY OF GROWTH,[8]; 5 μM,YES
same,IMPOSSIBILITY OF GROWTH,[8]; 30 μM,YES
"CCCCCCCC[P+](c1ccccc1)(c1ccccc1)c1ccccc1 [C8TPP, octyltriphenylphosphonium]",antimicrobial activity (growth inhibition),[2]; To1C-deletion mutant,have antimicrobial activity
same,antimicrobial activity (growth inhibition),[1],have antimicrobial activity
CC1=CC(=O)C(CCCCCCCCCC[P+](c2ccccc2)(c2ccccc2)c2ccccc2)=CC1=O [SkQT-para],antimicrobial activity (growth inhibition),[1],have antimicrobial activity
